As a reminder, the CL/F is the apparent clearance, not corrected for the fraction that reaches the circulation. A word on the Tmax: it is the time at which the peak concentration occurs. What is called EC50 is the concentration at which the effect is half-maximal. Higher therefore signals a need for much substance. As usually defined, the Ki is the dissociation constant of the complex between target and ligand, obtained from inhibition or displacement.

Starred links: 1 amine or outer side, 2 acyl side, 3 side chain; linkers in the order of their positions; H or OH if unused. Positions of bridges follow the written chain, without caps; N, C: chain ends. Non-standard residues stand in square brackets, D forms with d. Residues, ends and D or L forms follow the SMILES beside them. Groups on a side chain read outwards from the residue. *: point of attachment. C20 diacid = O=C(O)CCCCCCCCCCCCCCCCCCC(=O)*; γGlu = O=C(O)[C@H](CCC(=O)[*:2])N[*:1]; αMeF = C[C@](N)(Cc1ccccc1)C(=O)O; NMeD = CN[C@@H](CC(=O)O)C(=O)O; Orn = NCCC[C@H](N)C(=O)O; CH2 = C([*:1])[*:2]

Data set [1] can be described thus: Pharmacokinetics in male Sprague Dawley rats. It counts as in vivo. As to conditions: single SC 30 nmol/kg, mean; for CL/F / Tmax / half-life: rat, plasma; for CL/F / Tmax / AUCINF/D / Cmax/D: n = 3; for half-life: n = 3, read-out: T l/2 (converted). The procedure: (§1) The pharmacokinetics of Compound II (SEQ ID NO:2), Compound IV (SEQ ID NO:4), Compound VI (SEQ ID NO:6), and Compound VIII (SEQ ID NO:8) are evaluated following a single subcutaneous administration of 30 nmol/kg to male Sprague Dawley rats. Blood samples are collected at 1, 3, 6, 12, 24, 48, 72, 96 hours post SC dose. The resulting individual plasma concentrations are used to calculate pharmacokinetic parameters. Peptide plasma (K3EDTA) concentrations are determined using a qualified LC/MS method that measured the intact mass of the peptides. Each peptide and an analog as an internal standard are extracted from plasma. A high resolution Thermo Q-Exactive is used for LC/MS detection.

The next data set deals with T1, hAMY1R (Homo sapiens, UniProt O60894+P30988).
T1 construct: expressed in transfected cells
T1 sequence (O60894 27-148 partner, one chain of several): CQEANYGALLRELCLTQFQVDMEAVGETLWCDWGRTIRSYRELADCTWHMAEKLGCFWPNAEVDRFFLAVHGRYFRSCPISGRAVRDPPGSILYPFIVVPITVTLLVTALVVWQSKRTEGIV
Put plainly: hAMY1R cAMP functional activity (HTRF). As to conditions: ±SE; UMUC3 cells overexpressing hAMY1R; relative EC50. It counts as cell-based. A digest of the protocol:
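UMUC3 cells expressing hCTR plus transfected human RAMP1 (AMY1R) were treated with peptide in a 1:3 dilution series at 1500 cells/well for 1 h at room temperature. Intracellular cAMP was measured by HTRF after 60 min lysis-detection and converted to pmol/well against a standard curve for each run.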
A general note: In TR-FRET formats the signal depends on donor and acceptor labels being close together.

The nature of data set [2]: Pharmacokinetics in male cynomolgus monkeys. As to conditions: single SC 20 nmol/kg, mean; for CL/F / Tmax / half-life: male, cynomolgus monkey, plasma; for CL/F / Tmax / AUCINF/D / Cmax/D: n = 3; for half-life: n = 3, read-out: T½ (converted). Type of data set: in vivo. The procedure: as §1, with “20” for “30”, “cynomolgus monkeys.” for “Sprague Dawley rats.”, “120, 168, 240, 336, 408, 504” for “96”

The target of data set [3] is T2, human calcitonin receptor (hCTR) (Homo sapiens, UniProt P30988).
T2 construct: expressed in transfected cells; host or cells: membranes of UM-UC-3 (UMUC3) cells stably expressing human CTa
T2 sequence (P30988 25-474): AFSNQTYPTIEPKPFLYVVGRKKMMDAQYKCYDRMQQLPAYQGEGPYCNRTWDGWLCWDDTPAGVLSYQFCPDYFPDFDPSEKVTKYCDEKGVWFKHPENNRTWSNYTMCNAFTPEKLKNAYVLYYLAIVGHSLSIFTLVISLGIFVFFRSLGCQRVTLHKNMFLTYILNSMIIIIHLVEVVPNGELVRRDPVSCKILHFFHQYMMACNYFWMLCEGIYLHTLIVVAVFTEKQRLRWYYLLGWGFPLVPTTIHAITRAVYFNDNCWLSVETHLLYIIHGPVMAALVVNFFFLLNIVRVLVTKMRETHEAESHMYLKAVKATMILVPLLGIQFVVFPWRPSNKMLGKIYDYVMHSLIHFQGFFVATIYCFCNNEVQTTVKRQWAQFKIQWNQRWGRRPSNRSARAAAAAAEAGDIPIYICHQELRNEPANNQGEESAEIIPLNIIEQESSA
Put plainly: hCTR competitive radioligand binding filter assay (125I-hCT). The following applies: ± SE; membranes of hCTR overexpressing cells. The procedure: The equilibrium dissociation constants (Kd) for the various receptor/radioligand interactions are determined from saturation binding analysis using the same reagents and buffers as described below for compound testing.
The receptor binding affinity (Ki) of rAMY, hCT, and hAMY agonist peptides on hCTR membranes is determined from a competitive radioligand binding filter assay.

The next data set relates to CD4+ T cells. The experiment in a line: T cell proliferation assay. The following applies: 7-10 donors with diverse MHC.
The subject of data set [4] is pre-existing antibodies (ADA) in normal human serum. Put plainly: Pre-existing reactivity (ACE assay format). As to conditions: >50 donors; treatment-naive normal human serum. The procedure: This assay assesses the presence of pre-existing antibodies (ADA) against the tested molecules in treatment-naive normal human serum (NHS). Diluted NHS is incubated overnight on a Pierce Streptavidin plate coated with biotinylated tested molecules. On the following day, the captured binding proteins are acid eluted, hard-coated to a Mesoscale (MSD) plate, and detected with a combination of biotin-labeled molecule and ruthenium-labeled streptavidin. If anti-drug antibodies are present, they will bind the labeled drug and the resulting signal is referred to as Tier 1 signal (expressed as electrochemiluminescence). This signal is confirmed in Tier 2 by adding excess unlabeled tested molecule in the detection step, which results in the suppression of the Tier 1 signal. The presence of pre-existing anti-drug antibodies is expressed as magnitude of the 90th percentile of Tier 2 inhibition. The 90th percentile of Tier 2 inhibition, is a statistical tool to assess the magnitude of specificity of Tier 1 reactivity. This 90th percentile is used to rank molecules in terms of ADA risk.

Protocol for CD4+ T cells: This assay assesses the ability of tested antibodies or tested MAPPS peptides to activate CD4+ T cells by inducing cellular proliferation. CD8+ T cell depleted PBMC's are prepared and labeled with CFSE. Each sample is tested with media control, keyhole limpet haemocyanin (KLH; positive clinical benchmark control), tested antibodies, or tested MAPPS peptides. Cultures are incubated for 7 days. On day 7, samples are analyzed by flow cytometry.

For the molecule `CC(C)C[C@H](NC(=O)[C@H](CCCN)NC(=O)CNC(=O)[C@@H](NC(=O)[C@H](C)NC(=O)[C@@H]1CSCSC[C@H](NC(=O)CC[C@H](N)C(=O)O)C(=O)N[C@@H](CC(N)=O)C(=O)N[C@@H]([C@@H](C)O)C(=O)N[C@@H](C)C(=O)N[C@@H]([C@@H](C)O)C(=O)N1)[C@@H](C)O)C(=O)N[C@@H](C)C(=O)N[C@@H](CCC(=O)O)C(=O)N[C@@](C)(Cc1ccccc1)C(=O)N[C@@H](CC(C)C)C(=O)N[C@H](C(=O)N[C@@H](CCCNC(=N)N)C(=O)N[C@@H](CO)C(=O)N[C@@H](CO)C(=O)N[C@@H](CC(N)=O)C(=O)N(C)[C@@H](CC(=O)O)C(=O)N[C@@H](Cc1ccccc1)C(=O)NCC(=O)N1CCC[C@H]1C(=O)N[C@@H](CCCCNC(=O)CC[C@H](NC(=O)CC[C@H](NC(=O)CCCCCCCCCCCCCCCCCCC(=O)O)C(=O)O)C(=O)O)C(=O)N[C@@H](CC(C)C)C(=O)N1CCC[C@H]1C(=O)N1CCC[C@H]1C(=O)N[C@H](C(=O)N[C@@H](CCC(=O)O)C(=O)N[C@H](C(=O)NCC(=O)N[C@@H](CO)C(=O)N[C@@H](CC(N)=O)C(=O)N[C@H](C(=O)N[C@@H](Cc1ccc(O)cc1)C(N)=O)[C@@H](C)O)C(C)C)[C@@H](C)O)C(C)C` [Compound IV, γE-CNTATCATG-Orn-LAE-αMeF-LVRSSN-NMeD-FGPKLPPTEVGSNTY-NH2] (γGlu-CNTATCATG[Orn]LAE[αMeF]LVRSSN[NMeD]FGPK([γGlu-γGlu-C20 diacid])LPPTEVGSNTY-NH2; linker 1-6 via CH2), in data set [1], the CL/F is 1.8 mL/h/kg, the Tmax came out at 20 ± 6.9 h, the half-life was 66.9 ± 27.6 h and the AUCINF/D is 551 ± 27.1 hr * kg * nmol/L/nmol. Further, the Cmax/D in data set [1] is 5.5 ± 2.1 kg * nmol/L/nmol. At hAMY1R, the EC50 was 0.000107 ± 1.6e-05 µM. Moreover, in data set [2], the apparent clearance (CL/F) was 0.62 mL/h/kg, the Tmax was found to be 48 ± 24 h, the half-life is 177 ± 13.5 h and the AUCINF/D worked out at 1607 ± 104 hr * kg * nmol/L/nmol. In data set [2], the Cmax/D turned out to be 6.2 ± 1.0 kg * nmol/L/nmol. Further, the inhibition constant (Ki) in data set [3] is 0.665 ± 0.113 µM. Further, in the data set on CD4+ T cells, the “T Cell Proliferation Assay: protein, immunogenicity risk” value is on record as “Low Risk” and the “T Cell Proliferation Assay: protein, positive donors” value is recorded as “(0/9”. Besides, the “Pre-existing Reactivity 90th percentile T2 inhibition” value in data set [4] is on record as 33.2%.

Take `CC[C@H](C)[C@H](NC(=O)[C@@H]1CCCN1C(=O)CNC(=O)[C@H](Cc1ccccc1)NC(=O)[C@H](CC(=O)O)N(C)C(=O)[C@H](CC(N)=O)NC(=O)[C@H](CO)NC(=O)[C@H](CO)NC(=O)[C@H](CCCNC(=N)N)NC(=O)[C@@H](NC(=O)[C@H](CC(C)C)NC(=O)[C@](C)(Cc1ccccc1)NC(=O)[C@H](CCC(=O)O)NC(=O)[C@H](C)NC(=O)[C@H](CC(C)C)NC(=O)[C@H](CCCN)NC(=O)CNC(=O)[C@@H](NC(=O)[C@H](C)NC(=O)[C@@H]1CSCSC[C@H](NC(=O)[C@@H](N)CCCCNC(=O)CC[C@H](NC(=O)CC[C@H](NC(=O)CCCCCCCCCCCCCCCCCCC(=O)O)C(=O)O)C(=O)O)C(=O)N[C@@H](CCC(=O)O)C(=O)N[C@@H]([C@@H](C)O)C(=O)N[C@@H](C)C(=O)N[C@@H]([C@@H](C)O)C(=O)N1)[C@@H](C)O)C(C)C)C(=O)N[C@@H](CC(C)C)C(=O)N1CCC[C@H]1C(=O)N1CCC[C@H]1C(=O)N[C@H](C(=O)N[C@@H](CCC(=O)O)C(=O)N[C@H](C(=O)NCC(=O)N[C@@H](CO)C(=O)N[C@@H](CC(N)=O)C(=O)N[C@H](C(=O)N[C@@H](Cc1ccc(O)cc1)C(N)=O)[C@@H](C)O)C(C)C)[C@@H](C)O` [Compound VI, KCETATCATG-Orn-LAE-αMeF-LVRSSN-NMeD-FGPILPPTEVGSNTY-NH2] (H-K([γGlu-γGlu-C20 diacid])CETATCATG[Orn]LAE[αMeF]LVRSSN[NMeD]FGPILPPTEVGSNTY-NH2; linker 2-7 via CH2): in data set [1], the CL/F was 2 mL/h/kg, the Tmax came out at 24 h, the half-life was 54 ± 8.4 h and the AUCINF/D is listed as 506 ± 26.6 hr * kg * nmol/L/nmol. Further, the Cmax/D in data set [1] was 5.4 ± 0.5 kg * nmol/L/nmol. Besides, the EC50 on hAMY1R was 0.000107 ± 1.5e-05 µM. Further, in data set [2], the CL/F is 1.26 mL/h/kg, the Tmax was found to be 40 ± 13.9 h, the half-life is 85 ± 5.8 h and the AUCINF/D amounted to 794 ± 27 hr * kg * nmol/L/nmol. Besides, the Cmax/D in data set [2] worked out at 4.9 ± 0.7 kg * nmol/L/nmol. Also, in data set [3], the Ki is 0.235 ± 0.045 µM. In addition, in the data set with CD4+ T cells, the “T Cell Proliferation Assay: protein, immunogenicity risk” value is on record as “Low Risk” and the “T Cell Proliferation Assay: protein, positive donors” value is on record as “(1/9”. In data set [4], the “Pre-existing Reactivity 90th percentile T2 inhibition” value was 43.9%.

The values above are taken from patent US12551532B2, “Long-acting amylin receptor agonists and uses thereof” (Eli Lilly and Company, priority 2021, dated 2026).
